Our source for the IC50 values is patent US20230203059A1, “MACROCYCLIC JAK INHIBITOR AND USES THEREOF” (Biopolar Hongye (Guangdong) Pharmaceutical Co. Ltd., priority 2020, published 2023).

What all share (format): biochemical
The target of assay [1] is JAK2 (Homo sapiens, UniProt O60674). The assay is described as follows: JAK kinase activity, homogeneous time-resolved fluorescence (JAK2 reaction system). The note with it: ATP 2 μM, JAK2 protein 0.01 ng/μL. In short, it runs like this:
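IC50 derived by Hill-equation fit of the 665/615 nm time-resolved fluorescence ratio after EDTA-containing detection mix with anti-phosphosubstrate antibody. Preceding 1 h reaction contained 2 μM ATP, 0.01 ng/μL JAK2, substrate, 50 mM Hepes pH 7.0, 5 mM MgCl2, 1 mM DTT.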

In assay [2] the target is TYK2 (Homo sapiens, UniProt P29597). The assay is described as follows: JAK kinase activity, homogeneous time-resolved fluorescence (TYK2 reaction system). The note with it: ATP 2 μM, TYK2 protein 0.2 ng/μL; read-out: TYK 2 activity. Summed up: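 Activity read as the 665 nm/615 nm ratio after adding EDTA-containing detection mix with anti-phospho-substrate antibody and XL-615. Beforehand, 0.2 ng/μL TYK2, 2 μM ATP, substrate and compound reacted 1 h in pH 7.0 Hepes buffer with MgCl2 and DTT. IC50 fitted with Hill-slope equation.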

Assay [3] has as its target JAK1 (Homo sapiens, UniProt P23458). The assay is described as follows: JAK kinase activity, homogeneous time-resolved fluorescence (JAK1 reaction system). The note with it: ATP 2 μM, JAK1 protein 0.2 ng/μL; read-out: JAK 1 activity. In short, it runs like this: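 Kinase activity read as the 665 nm/615 nm time-resolved fluorescence ratio (320 nm excitation) after EDTA-containing antibody and XL-615 addition. Reaction ran 1 h at pH 7.0 (Hepes, MgCl2, DTT) with 0.2 ng/μL JAK1 and ATP at 2 μM. IC50 derived by Hill-slope fit.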

In assay [4] the target is T1, JAK3 (Homo sapiens, UniProt P52333).
T1 sequence (P52333 1-1124): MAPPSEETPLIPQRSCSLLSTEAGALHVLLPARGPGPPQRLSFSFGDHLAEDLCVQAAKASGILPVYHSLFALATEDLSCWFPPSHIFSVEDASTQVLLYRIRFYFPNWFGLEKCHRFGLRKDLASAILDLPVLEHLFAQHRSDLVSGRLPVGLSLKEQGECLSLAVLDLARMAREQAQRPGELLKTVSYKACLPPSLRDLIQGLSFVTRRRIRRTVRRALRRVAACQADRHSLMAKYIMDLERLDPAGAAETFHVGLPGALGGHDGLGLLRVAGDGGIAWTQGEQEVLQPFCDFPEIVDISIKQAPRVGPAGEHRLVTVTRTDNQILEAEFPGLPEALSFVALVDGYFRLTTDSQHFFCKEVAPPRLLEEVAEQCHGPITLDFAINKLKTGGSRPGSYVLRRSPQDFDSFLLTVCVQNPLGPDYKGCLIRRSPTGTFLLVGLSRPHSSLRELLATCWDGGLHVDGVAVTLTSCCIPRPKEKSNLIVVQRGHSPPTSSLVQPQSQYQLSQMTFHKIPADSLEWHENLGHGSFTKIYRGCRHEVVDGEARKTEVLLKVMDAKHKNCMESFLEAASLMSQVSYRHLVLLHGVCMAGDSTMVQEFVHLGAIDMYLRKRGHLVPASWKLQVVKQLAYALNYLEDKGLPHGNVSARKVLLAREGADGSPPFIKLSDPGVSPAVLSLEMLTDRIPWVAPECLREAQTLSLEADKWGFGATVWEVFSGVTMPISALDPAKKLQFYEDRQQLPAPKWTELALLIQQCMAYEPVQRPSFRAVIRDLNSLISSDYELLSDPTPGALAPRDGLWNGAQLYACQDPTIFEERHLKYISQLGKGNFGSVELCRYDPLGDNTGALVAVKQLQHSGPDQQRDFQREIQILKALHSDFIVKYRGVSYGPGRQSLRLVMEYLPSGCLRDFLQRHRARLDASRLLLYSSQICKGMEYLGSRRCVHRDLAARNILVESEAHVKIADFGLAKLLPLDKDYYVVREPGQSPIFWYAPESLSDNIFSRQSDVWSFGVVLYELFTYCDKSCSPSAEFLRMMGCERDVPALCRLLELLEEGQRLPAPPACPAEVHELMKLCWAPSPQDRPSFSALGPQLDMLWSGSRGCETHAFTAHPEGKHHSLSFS
The assay is described as follows: JAK kinase activity, homogeneous time-resolved fluorescence (JAK3 reaction system). The conditions noted are these: ATP 2 μM, JAK3 protein 0.04 ng/μL; read-out: JAK 3 activity.

Chain of JAK2 (O60674 whole entry): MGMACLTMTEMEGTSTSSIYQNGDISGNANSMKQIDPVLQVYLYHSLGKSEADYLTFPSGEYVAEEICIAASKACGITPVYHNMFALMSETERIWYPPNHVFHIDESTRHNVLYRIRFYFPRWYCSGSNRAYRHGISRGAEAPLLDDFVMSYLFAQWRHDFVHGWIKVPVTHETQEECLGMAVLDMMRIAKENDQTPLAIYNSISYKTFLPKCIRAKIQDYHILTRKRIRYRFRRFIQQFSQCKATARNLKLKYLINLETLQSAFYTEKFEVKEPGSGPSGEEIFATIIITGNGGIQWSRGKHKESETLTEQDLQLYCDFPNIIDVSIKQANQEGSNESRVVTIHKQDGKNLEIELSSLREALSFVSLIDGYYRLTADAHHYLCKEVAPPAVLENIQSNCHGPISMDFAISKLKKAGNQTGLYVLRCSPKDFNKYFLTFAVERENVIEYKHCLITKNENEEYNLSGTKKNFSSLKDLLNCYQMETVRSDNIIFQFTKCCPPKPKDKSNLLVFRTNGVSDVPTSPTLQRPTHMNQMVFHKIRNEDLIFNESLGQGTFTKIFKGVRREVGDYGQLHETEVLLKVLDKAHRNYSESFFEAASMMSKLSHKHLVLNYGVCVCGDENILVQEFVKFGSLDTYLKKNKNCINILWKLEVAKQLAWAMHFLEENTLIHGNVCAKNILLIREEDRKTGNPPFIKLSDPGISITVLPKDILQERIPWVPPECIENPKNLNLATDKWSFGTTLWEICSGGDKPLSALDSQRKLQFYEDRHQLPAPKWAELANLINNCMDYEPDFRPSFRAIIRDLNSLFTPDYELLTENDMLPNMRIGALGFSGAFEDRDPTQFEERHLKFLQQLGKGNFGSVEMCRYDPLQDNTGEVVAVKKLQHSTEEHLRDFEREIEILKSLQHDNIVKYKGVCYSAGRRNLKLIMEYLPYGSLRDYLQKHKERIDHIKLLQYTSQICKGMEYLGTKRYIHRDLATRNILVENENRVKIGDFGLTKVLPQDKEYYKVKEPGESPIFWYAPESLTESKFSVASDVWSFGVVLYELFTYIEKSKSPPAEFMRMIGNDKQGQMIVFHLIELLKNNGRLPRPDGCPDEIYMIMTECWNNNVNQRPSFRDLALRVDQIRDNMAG
Chain of TYK2 (P29597 whole entry): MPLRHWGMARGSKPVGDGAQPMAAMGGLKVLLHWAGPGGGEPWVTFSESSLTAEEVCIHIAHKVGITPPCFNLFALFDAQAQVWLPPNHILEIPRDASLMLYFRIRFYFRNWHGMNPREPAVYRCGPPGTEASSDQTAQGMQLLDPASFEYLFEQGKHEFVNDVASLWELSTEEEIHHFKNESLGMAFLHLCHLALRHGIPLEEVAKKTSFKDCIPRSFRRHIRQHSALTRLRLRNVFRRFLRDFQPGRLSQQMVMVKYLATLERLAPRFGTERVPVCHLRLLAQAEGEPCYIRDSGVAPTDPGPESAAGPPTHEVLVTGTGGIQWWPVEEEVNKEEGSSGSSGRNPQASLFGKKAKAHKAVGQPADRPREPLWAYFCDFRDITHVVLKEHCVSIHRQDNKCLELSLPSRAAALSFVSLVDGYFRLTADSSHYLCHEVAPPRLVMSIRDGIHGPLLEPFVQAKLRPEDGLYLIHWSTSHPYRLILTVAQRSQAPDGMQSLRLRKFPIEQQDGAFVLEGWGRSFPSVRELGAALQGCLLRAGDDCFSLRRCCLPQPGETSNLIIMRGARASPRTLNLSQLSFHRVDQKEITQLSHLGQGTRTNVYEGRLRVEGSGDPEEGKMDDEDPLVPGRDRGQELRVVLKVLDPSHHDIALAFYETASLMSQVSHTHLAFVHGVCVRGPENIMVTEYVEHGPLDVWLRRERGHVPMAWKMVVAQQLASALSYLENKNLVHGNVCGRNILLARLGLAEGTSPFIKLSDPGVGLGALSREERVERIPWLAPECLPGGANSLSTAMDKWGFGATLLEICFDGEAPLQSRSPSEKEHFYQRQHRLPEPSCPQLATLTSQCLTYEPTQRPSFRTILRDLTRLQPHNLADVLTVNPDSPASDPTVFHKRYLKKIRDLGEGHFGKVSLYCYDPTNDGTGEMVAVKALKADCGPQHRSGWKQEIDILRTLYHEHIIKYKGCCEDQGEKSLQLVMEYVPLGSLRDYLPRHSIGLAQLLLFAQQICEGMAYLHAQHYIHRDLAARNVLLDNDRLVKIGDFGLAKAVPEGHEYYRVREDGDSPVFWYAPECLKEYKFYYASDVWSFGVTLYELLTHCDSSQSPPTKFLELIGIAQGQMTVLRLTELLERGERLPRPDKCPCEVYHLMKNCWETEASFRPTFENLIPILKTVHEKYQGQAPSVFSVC
Chain of JAK1 (P23458 whole entry): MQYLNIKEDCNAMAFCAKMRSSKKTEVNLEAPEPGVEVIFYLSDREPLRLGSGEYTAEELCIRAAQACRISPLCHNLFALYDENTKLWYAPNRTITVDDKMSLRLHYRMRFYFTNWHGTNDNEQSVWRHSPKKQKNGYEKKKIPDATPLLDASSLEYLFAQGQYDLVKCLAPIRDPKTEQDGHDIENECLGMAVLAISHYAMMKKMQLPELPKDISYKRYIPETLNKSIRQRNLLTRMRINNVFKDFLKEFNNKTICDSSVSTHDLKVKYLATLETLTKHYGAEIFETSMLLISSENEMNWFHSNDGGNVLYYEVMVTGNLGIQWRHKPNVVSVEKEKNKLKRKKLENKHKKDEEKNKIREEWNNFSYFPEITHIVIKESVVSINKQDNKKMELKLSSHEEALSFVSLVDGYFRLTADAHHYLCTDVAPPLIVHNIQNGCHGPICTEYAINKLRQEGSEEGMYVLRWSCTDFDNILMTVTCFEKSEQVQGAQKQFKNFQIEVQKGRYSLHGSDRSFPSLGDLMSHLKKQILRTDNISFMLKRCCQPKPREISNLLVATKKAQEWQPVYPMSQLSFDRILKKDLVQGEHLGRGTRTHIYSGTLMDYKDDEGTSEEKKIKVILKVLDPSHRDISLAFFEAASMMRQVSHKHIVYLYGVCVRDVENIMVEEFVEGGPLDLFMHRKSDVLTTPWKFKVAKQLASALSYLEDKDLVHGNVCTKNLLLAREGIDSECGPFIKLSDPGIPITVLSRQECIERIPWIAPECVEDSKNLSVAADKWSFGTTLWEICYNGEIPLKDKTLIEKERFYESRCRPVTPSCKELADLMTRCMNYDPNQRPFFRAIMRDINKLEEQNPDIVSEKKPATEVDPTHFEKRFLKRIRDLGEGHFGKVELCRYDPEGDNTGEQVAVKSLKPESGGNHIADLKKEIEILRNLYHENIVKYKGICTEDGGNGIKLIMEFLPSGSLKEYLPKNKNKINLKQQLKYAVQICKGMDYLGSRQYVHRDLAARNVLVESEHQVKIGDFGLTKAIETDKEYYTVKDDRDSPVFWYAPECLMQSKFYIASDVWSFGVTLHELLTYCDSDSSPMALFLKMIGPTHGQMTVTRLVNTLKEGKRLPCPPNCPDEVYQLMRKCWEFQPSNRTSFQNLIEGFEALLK

`O=C1NCCCCOCc2cc(ccc2N2CCCC2)Nc2nccc(n2)-c2ccc1cc2F` [Example 34, 1^2-fluoro-4^4-(pyrrolidin-1-)-6-oxa-3,11-diaza-2(4,2)-pyrimidina-1(1,4),4(1,3)-dibenzenacyclododecaphan-12-one]: the IC50 in assay [1] was 101 to 1000 nM; in assay [2], 1000 to 10000 nM; in assay [3], 101 to 1000 nM; in assay [4] it was 11 to 100 nM.
For the compound `Cc1cc2ccc1-c1nc(ncc1C)Nc1ccc(Cl)c(c1)COCCCCNC2=O` [Example 35, 1^2,2^5-dimethyl-4^4-chloro-6-oxa-3,11-diaza-2(4,2)-pyrimidina-1(1,4),4(1,3)-dibenzenacyclododecaphan-12-one], the IC50 was greater than 10000 nM in assay [1], greater than 10000 nM in assay [2], greater than 10000 nM in assay [3] and 1000 to 10000 nM in assay [4].
Turning to `Cc1cc2ccc1-c1nc(ncc1C)Nc1cccc(c1)COCCCCNC2=O` [Example 36, 1^2,2^5-dimethyl-6-oxa-3,11-diaza-2(4,2)-pyrimidina-1(1,4),4(1,3)-diben-zenacyclododecaphan-12-one], the IC50 is greater than 10000 nM in assay [1], greater than 10000 nM in assay [2], greater than 10000 nM in assay [3] and 1000 to 10000 nM in assay [4].
Turning to `Cc1ccc2cc1COCCCCNC(=O)c1ccc(c(C)c1)-c1nc(ncc1C)N2` [Example 37, 1^2,2^5,4^4-trimethyl-6-oxa-3,11-diaza-2(4,2)-pyrimidina-1(1,4),4(1,3)-di-benzenacyclododecaphan-12-one], the IC50 in assay [1] was greater than 10000 nM; in assay [2], greater than 10000 nM; in assay [3], greater than 10000 nM; in assay [4], 1000 to 10000 nM.
As for `Cc1ccc2cc1COCCCCNC(=O)c1ccc(c(F)c1)-c1ccnc(n1)N2` [Example 38, 1^2-fluoro-4^4-methyl-6-oxa-3,11-diaza-2(4,2)-pyrimidina-1(1,4),4(1,3)-di-benzenacyclododecaphan-12-one], the IC50 in assay [1] was in the range of 101 to 1000 nM; in assay [2], 1000 to 10000 nM; in assay [3], 101 to 1000 nM; in assay [4], 101 to 1000 nM.
With `Cc1ccc2cc1COCCCCNC(=O)c1ccc(c(C)c1)-c1ccnc(n1)N2` [Example 39, 1^2,4^4-dimethyl-6-oxa-3,11-diaza-2(4,2)-pyrimidina-1(1,4),4(1,3)-diben-zenacyclododecaphan-12-one], the IC50 was 1000 to 10000 nM in assay [1], greater than 10000 nM in assay [2], 1000 to 10000 nM in assay [3] and 101 to 1000 nM in assay [4].
Turning to `Cc1cc2ccc1-c1ccnc(n1)Nc1cccc(c1)COCCCCNC2=O` [Example 40, 1^2-methyl-6-oxa-3,11-diaza-2(4,2)-pyrimidina-1(1,4),4(1,3)-diben-zenacyclododecaphan-12-one], the IC50 in assay [1] was 1000 to 10000 nM; in assay [2], greater than 10000 nM; in assay [3] it was 1000 to 10000 nM; in assay [4] it was 101 to 1000 nM.
Regarding `O=C1NCCCCOCc2cc(ccc2N2CCOCC2)Nc2nccc(n2)-c2ccc1cc2I` [Example 41, 1^2-iodine-4^4-morpholin-6-oxa-3,11-diaza-2(4,2)-pyrimidina-1(1,4),4(1,3)-dibenzenacyclododephan-12-one], the IC50 in assay [1] fell in the range of 101 to 1000 nM; in assay [2], 1000 to 10000 nM; in assay [3], 1000 to 10000 nM; in assay [4], 101 to 1000 nM.
With `Cc1cc2ccc1-c1ccnc(n1)Nc1ccc(N3CCCCC3)c(c1)COCCCCNC2=O` [Example 42, 1^2-methyl-4^4-(piperidin-1-)-6-oxa-3,11-diaza-2(4,2)-pyrimidina-1(1,4),4(1,3)-dibenzenacyclododecaphan-12-one], the IC50 in assay [1] was in the range of 101 to 1000 nM; in assay [2] it was 101 to 1000 nM; in assay [3] it was 1000 to 10000 nM; in assay [4], 11 to 100 nM.
In the case of `Cc1ccc2cc1COCCCCNC(=O)c1ccc(c(N)c1)-c1ccnc(n1)N2` [Example 43, 1^2-amino-4^4-methyl-6-oxa-3,11-dia-za-2(4,2)-pyrimidina-1(1,4),4(1,3)-dibenzenacyclododecaphan-12-one], the IC50 in assay [1] is 1000 to 10000 nM; in assay [2] it was greater than 10000 nM; in assay [3] it was 1000 to 10000 nM; in assay [4] it was 101 to 1000 nM.
With `Cc1cc2ccc1-c1ccnc(n1)Nc1ccc(OC3CCCCC3)c(c1)COCCCCNC2=O` [Example 44, 1^2-methyl-4^4-cyclohexyloxy-6-oxa-3,11-diaza-2(4,2)-pyrimidina-1(1,4)-4(1,3)-dibenzenacyclododecaphan-12-one], the IC50 in assay [1] is 101 to 1000 nM; in assay [2], 1000 to 10000 nM; in assay [3], 1000 to 10000 nM; in assay [4] it was 11 to 100 nM.
For the compound `Cc1cc2ccc1-c1nc(ncc1C)Nc1ccc(F)c(c1)COCCCCNC2=O` [Example 45, 1^2,2^5-dimethyl-4^4-fluoro-6-oxa-3,11-diaza-2(4,2)-pyrimidina-1(1,4),4(1,3)-dibenzenacyclododecaphan-12-one], the IC50 is 1000 to 10000 nM in assay [1], greater than 10000 nM in assay [2], 1000 to 10000 nM in assay [3] and 1000 to 10000 nM in assay [4].
Regarding `Cc1cc2ccc1-c1ccnc(n1)Nc1cc(cc(N3CCOCC3)c1)COCCCCNC2=O` [Example 46, 1^2-methyl-4^4-morpholin-6-oxa-3,11-diaza-2(4,2)-pyrimidina-1(1,4),4(1,3)-dibenzenacyclododecaphan-12-one], the IC50 in assay [1] fell in the range of 101 to 1000 nM; in assay [2], 1000 to 10000 nM; in assay [3], 1000 to 10000 nM; in assay [4], 11 to 100 nM.
For `Nc1cc2ccc1-c1ccnc(n1)Nc1ccc(OC3CCCCC3)c(c1)COCCCCNC2=O` [Example 47, 1^2-amino-4^4-cyclohexyloxy-6-oxa-3,11-diaza-2(4,2)-pyrimidina-1(1,4),4(1,3)-dibenzenacyclododecaphan-12-one], the IC50 in assay [1] fell in the range of 1000 to 10000 nM; in assay [2] it was 1000 to 10000 nM; in assay [3] it was 1000 to 10000 nM; in assay [4], 11 to 100 nM.
Regarding `O=C1NCCCCOCc2cc(ccc2N2CCCCC2)Nc2nccc(n2)-c2ccc1cc2[N+](=O)[O-]` [Example 48, 1^2-nitro-4^4-(piperidin-1-)-6-oxa-3,11-diaza-2(4,2)-pyrimidina-1(1,4),4(1,3)-dibenzenacyclododecaphan-12-one], the IC50 in assay [1] is 1000 to 10000 nM; in assay [2], 1000 to 10000 nM; in assay [3] it was 1000 to 10000 nM; in assay [4], 101 to 1000 nM.
For the compound `O=C1NCCCCCOCc2cc(ccc2N2CCOCC2)Nc2nccc(n2)-c2ccc1cc2[N+](=O)[O-]` [Example 49, 1^2-nitro-4^4-morpholin-6-oxa-3,12-di-aza-2(4,2)-pyrimidina-1(1,4),4(1,3)-dibenzenacyclotridecaphan-13-one], the IC50 in assay [1] lay within 101 to 1000 nM; in assay [2], 1000 to 10000 nM; in assay [3], 1000 to 10000 nM; in assay [4], 1000 to 10000 nM.
Consider `Nc1cc2ccc1-c1ccnc(n1)Nc1ccc(N3CCOCC3)c(c1)COCCCCCNC2=O` [Example 50, 1^2-amino-4^4-morpholin-6-oxa-3,12-diaza-2(4,2)-pyrimidina-1(1,4),4(1,3)-dibenzenacyclotridecaphan-13-one], for which the IC50 in assay [1] is 11 to 100 nM; in assay [2], 11 to 100 nM; in assay [3], 101 to 1000 nM; in assay [4] it was less than 10 nM.
As to `O=C1NCCCCOCc2cc(cc(N3CCOCC3)c2)Nc2nccc(n2)-c2ccc1cc2[N+](=O)[O-]` [Example 51, 1^2-nitro-4^5-morpholin-6-oxa-3,11-di-aza-2(4,2)-pyrimidina-1(1,4),4(1,3)-dibenzenacyclododecaphan-12-one], the IC50 in assay [1] is 1000 to 10000 nM; in assay [2], greater than 10000 nM; in assay [3] it was 1000 to 10000 nM; in assay [4] it was 101 to 1000 nM.
